Calls of active or inactive are those of the source. No cut-off for these calls is given here.
What was measured:
[1] = target: T1, Polyunsaturated fatty acid 5-lipoxygenase (Homo sapiens) (UniProt P09917); experiment: Inhibition of 5-LO in A23187-stimulated human HEK293 cells assessed as reduction in 5-LO product level at 1 uM preincubated for 5 mins followed by A23187, arachidonic acid addition and measured after 15 mins by RP-HPLC analysis relative to control; assay type: cell-based
T1 sequence (whole entry): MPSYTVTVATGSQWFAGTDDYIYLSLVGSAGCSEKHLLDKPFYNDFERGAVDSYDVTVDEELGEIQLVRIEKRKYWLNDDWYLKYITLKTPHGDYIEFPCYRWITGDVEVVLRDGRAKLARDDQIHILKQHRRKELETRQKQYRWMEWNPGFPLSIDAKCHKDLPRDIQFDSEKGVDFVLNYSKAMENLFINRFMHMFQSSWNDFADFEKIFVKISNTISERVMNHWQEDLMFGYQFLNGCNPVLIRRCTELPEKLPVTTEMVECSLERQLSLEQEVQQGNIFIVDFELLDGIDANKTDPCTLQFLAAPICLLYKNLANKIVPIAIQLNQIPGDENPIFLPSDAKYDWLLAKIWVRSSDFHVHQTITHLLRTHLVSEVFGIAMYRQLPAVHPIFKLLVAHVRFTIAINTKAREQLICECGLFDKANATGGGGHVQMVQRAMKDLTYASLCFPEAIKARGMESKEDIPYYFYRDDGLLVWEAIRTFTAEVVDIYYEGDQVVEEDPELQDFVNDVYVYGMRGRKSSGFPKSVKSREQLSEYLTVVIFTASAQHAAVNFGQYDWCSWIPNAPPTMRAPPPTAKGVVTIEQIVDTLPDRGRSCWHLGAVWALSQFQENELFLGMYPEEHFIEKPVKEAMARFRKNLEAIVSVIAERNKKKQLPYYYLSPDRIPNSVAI

[2] = target: T2, Polyunsaturated fatty acid 5-lipoxygenase (Homo sapiens, UniProt P09917); experiment: Inhibition of 5-LO in thapsigargin stimulated human PMNL cells assessed as reduction in 5-LO product level preincubated for 5 mins followed by thapsigargin addition and measured after 15 mins by RP-HPLC analysis; assay type: cell-based
T2 sequence (P09917 whole entry): T1 sequence (whole entry)

Row | SMILES | inhibition [1] | IC50 [2]
1 | COc1cc(/C=C/c2nc(CCc3ccccc3)no2)cc(OC)c1O | Active | 270 nM
2 | CCCOC(=O)/C=C/c1cc(OC)c(O)c(OC)c1 | Active | 710 nM
3 | COc1ccc(OC)c(/C=C/C(=O)OCCc2ccccc2)c1 | inactive | 
4 | COc1cc(/C=C/C(=O)OCCc2ccccc2)cc(OC)c1OC | inactive | 
5 | COc1cc(/C=C/c2nc(Cc3ccccc3)no2)cc(OC)c1O | Active | 300 nM
6 | COc1ccccc1CCOC(=O)/C=C/c1cc(OC)c(O)c(OC)c1 | Active | 250 nM
7 | COc1cc(/C=C/C(=O)OCCc2ccc(F)cc2)cc(OC)c1O | Active | 
8 | COc1cc(/C=C/C(=O)OC(C)C)cc(OC)c1O | inactive | 
9 | COc1cc(/C=C/C(=O)NCCc2ccccc2)cc(OC)c1O | inactive | 960 nM
10 | COc1cc(/C=C/C(=O)OCCc2ccccc2F)cc(OC)c1O | Active | 240 nM
11 | COc1cc(/C=C/COCc2ccccc2)cc(OC)c1O | Active | 1100 nM
12 | COc1cc(/C=C/COCCCc2ccccc2)cc(OC)c1O | Active | 560 nM
13 | COc1cc(CCC(=O)CCc2ccccc2)cc(OC)c1O | Active | 420 nM
14 | COc1cc(/C=C/C(=O)OCCc2ccccc2C(F)(F)F)cc(OC)c1O | Active | 350 nM
15 | COc1cc(C(=O)OCCc2ccccc2)cc(OC)c1O | inactive | 
16 | COc1cc(CC(=O)OCCc2ccccc2)cc(OC)c1O | inactive | 1100 nM
17 | COc1cccc(CCOC(=O)/C=C/c2cc(OC)c(O)c(OC)c2)c1 | Active | 210 nM
18 | COC(=O)/C=C/c1cc(OC)c(O)c(OC)c1 | inactive | 
19 | COc1cc(/C=C/C(=O)OCCc2ccccc2)cc(OC)c1OC(C)=O | Active | 270 nM
20 | CCOC(=O)/C=C/c1cc(OC)c(O)c(OC)c1 | inactive | 
21 | COc1ccc(CCOC(=O)/C=C/c2cc(OC)c(O)c(OC)c2)cc1 | Active | 

Continued, values first:

Row | inhibition [1] | IC50 [2] | SMILES
22 | Active | 590 nM | COc1cc(CCC(=O)OCCc2ccccc2)cc(OC)c1O
23 | Active |  | COc1cc(/C=C/C(=O)CCc2ccccc2)cc(OC)c1O
24 | Active |  | COc1cc(/C=C/C(=O)OCCc2ccc(C)cc2)cc(OC)c1O
25 | Active | 200 nM | COc1cc(/C=C/C(=O)OCCc2cccc(C)c2)cc(OC)c1O
26 | Active |  | C#CCOC(=O)/C=C/c1cc(OC)c(O)c(OC)c1
27 | Active |  | CC(c1cc2ccccc2s1)N(O)C(N)=O (stereo not given)
28 | Active | 340 nM | COc1cc(/C=C/C(=O)OCCCc2ccccc2)cc(OC)c1O
29 | Active |  | COc1cc(/C=C/C(=O)OCCc2ccccc2)cc(OC)c1O
30 | Active |  | COc1cc(/C=C/C(=O)OCCc2ccc(C(F)(F)F)cc2)cc(OC)c1O
31 | Active | 200 nM | COc1cc(/C=C/C(=O)OCCc2cccc(C(F)(F)F)c2)cc(OC)c1O
32 | Active |  | COc1cc(/C=C/C(=O)OCCC2CCCCC2)cc(OC)c1O
33 | inactive |  | COc1cccc(/C=C/C(=O)OCCc2ccccc2)c1OC
34 | inactive |  | COc1cc(/C=C/C(=O)OCCc2ccccc2)cc(OC)c1
35 | Active | 230 nM | COc1cc(/C=C/C(=O)OCCc2cccc(F)c2)cc(OC)c1O
36 | Active | 240 nM | COc1cc(/C=C/C(=O)OCCc2ccccc2C)cc(OC)c1O

From ChEMBL document CHEMBL5038646, “Structure-Activity Relationship Studies of New Sinapic Acid Phenethyl Ester Analogues Targeting the Biosynthesis of 5-Lipoxygenase Products: The Role of Phenolic Moiety, Ester Function, and Bioisosterism” (J Nat Prod, 2022)
